According to patent EP1566447A1, “Glimepiride- and insulin-induced glycosylphosphatidylinositol-specific phospholipase C regulation” (priority 2004, dated 2005):

How the values were obtained:
[1] = test system: bacterial, trypanosomal, serum and rat adipocyte GPI-PLC/D; experiment: (G)PI-PLC/D of various origin, results stated collectively; type: biochemical
Experimental: GPI-PLD (rat serum) was assayed according to "Hari et al. (1997) Biochim. Biophys. Acta 1355: 293-302" by incubation with 10 µl of human placental aP solution (100 U/ml in 10 mM Hepes/NaOH, pH 7.0, 150 mM NaCl) in 100 µl of 200 mM Tris/maleate (pH 7.0) and 1 % Nonidet P-40 for 10 min at 37°C and subsequent termination of the reaction by addition of 0.4 ml of ice-cold stop buffer (10 mM Hepes/NaOH, pH 7.0, 150 mM NaCl, 0.1 mM MgCl2 and 0.01 mM zinc acetate). GPI-PLC (T. brucei) was assayed as described in "Mensa-Wilmot et al. (1995) Methods Enzymol. 250: 641-655" by incubation with 5 µl of human placental aP solution (see above) in 50 µl of 50 mM Tris/HCl (pH 8.0), 0.25 % Nonidet P-40 and 5 mM EDTA for 30 min at 37°C and subsequent termination of the reaction by addition of 0.45 ml of stop buffer. […]
Pelleted hc/IcDIGs (10-50 µg protein) or (G)PI-PLC reaction mixtures (0.5 ml) were separated into amphiphilic and hydrophilic proteins using partitioning between TX-114-enriched and depleted phases according to "Bordier, C., (1981) J. Biol, Chem. 272: 2542-2550" by suspending in 1 ml of ice-cold TX-114 (1 %), 25 mM Tris/HCl (pH 7.4), 144 mM NaCl or mixing with 0.5 ml of ice-cold TX-114 (2 %), respectively. […] After re-extraction of the lower TX-114-enriched phase, aliquots of the pooled upper TX-114-depleted phase were measured for 5'-Nuc, aP and AChE activity or precipitated (15 % polyethylene glycol 4000) for SDS-PAGE analysis.
GPI-2350 inhibits (G)PI-PLC/D of various origin with high potency and selectivity: The effect of GPI-2350 on (purified or crude) B. cereus PI-PLC, T. brucei GPI-PLC and rat serum GPI-PLD was monitored by their incubation with partially purified solubilized GPI proteins under appropriate conditions (low or high detergent conc.) in the presence of increasing concentrations of GPI-2350. […]

rat adipocytes = experiment: isoproterenol-induced lipolysis measured as release of NBD-FA; type: cell-based; settings: Rattus norvegicus, Adipocyte, given as 'up to', read-out: impairment of insulin inhibition of NBD-FA release
Experimental: Electroporation was performed as described in "Müller, G. et al., (2000) Mol. Cell. Biol. 20: 4708-4723". Lipolysis was determined as release of glycerol or fluorescent NBD-FA from prelabeled and isoproterenol-stimulated adipocytes as described in "Müller, G. et al., (2003) Biochimie 85: 1245-1256". Gce1 was detected by photolabeling of solubilized plasma membranes or hc/IcDIGs (10-50 µg protein) with 8-N3-[^32P]cAMP and subsequent phosphorimaging as described in "Müller, G. et al., (1994) Biochemistry 33: 12149-12159". 5'-Nuc, aP and AChE activities were measured according to "Eliakim, R. et al., (1990) Biochim. Biophys. Acta […]". Protein was determined using the BCA protein determination kit from Pierce (Rockford, IL) and BSA as calibration standard. SDS-PAGE was performed using precast gels (Novex, San Diego, CA; 10 % Bis-Tris resolving gel, morpholinopropanesulfonic acid-SDS running buffer). Lumiimages were evaluated on a Lumilmager using Lumilmager software (Roche Diagnostics). Phosphor- and fluorescence images were processed and quantified using the Storm 860 Phosphorlmager system (Molecular Dynamics, Gelsenkirchen, Germany). Figures were constructed using the Adobe Photoshop software (Adobe Systems, Mountain View, CA). […]

CCCCCCCCCCCCP1(=O)O[C@@H]2[C@H](O)[C@@H](O)[C@H](O)[C@@H](O)[C@@H]2O1 (mixture of isomers) [GPI-2350, myo-inositol-1,2-cyclo-dodecylphosphonic acid]
blocked GPI-PLC/D by ([1]; 50 µM, one range for all four enzymes, Fig. 3): 60 to 95% | reversal of half-maximal inhibition upon 10-fold dilution ([1]; bacterial and trypanosomal (G)PI-PLC, dilution with excess of fresh GPI-protein substrate): completely reversed | IC50 ([1]; bacterial, trypanosome and serum GPI-PLC and GPI-PLD, one range for all): 0.2 to 10 µM | inhibition at 50 µM (rat adipocytes): 25 to 30%
